Measured values reported in patent US20230159527A1, “COMPOUNDS AS BCL-2 INHIBITORS” (Fochon Pharmaceuticals, Ltd., priority 2020, published 2023).

Legend:
Type in all cases: cell-based
Toledo cells = test: Cell proliferation assay, Toledo cells (MTS, 72 h); settings: Homo sapiens, Toledo cells, MTS, read-out: Toledo IC50
How it was run: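 Toledo cells (30000/well, RPMI-1640 with 10% FBS) were preincubated for 4 h. They were then exposed to nine compound concentrations from 10000 to 1.5 nM for 72 h at 37 °C, 5% CO2. MTS was added for 2 h and absorbance read at 490 nm to give IC50.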

RS4;11-BCL-2 G101V cells = test: Cell proliferation assay, engineered RS4;11 cells stably overexpressing BCL-2 G101V (MTS, 168 h); settings: Homo sapiens, RS4-11, 168 h, read-out: RS4, 11 BCL2- G101V
Method: (§1) MTS testing kit was purchased from Promega (Madison, Wis., USA). The RPMI-1640, Fetal bovine serum and Penicillin-Streptomycin were purchased from BI (Biological Industries, Beit Haemek, Israel). Puromycin was purchased from Beyotime (shanghai, China). Dimethyl sulfoxide (DMSO) was purchased from Sigma (St. Louis, Mo., USA). RS4;1l-BCL-2 G101V and RS4;11-BCL-2 F104L cells were cultured in RPM11640 supplemented with 1 ug/mL puromycin, 100 U/mL Penicillin-Streptomycin and 10% FBS.
(§2) To investigate whether a compound is able to inhibit the activity of BCL-2 mutation in cells, a mechanism-based assay using engineered cell lines stably overexpressing BCL-2 mutation ([…] and […]) was developed. In this assay, the inhibition of BCL-2 mutation was reflected by the inhibition of cell proliferation of RS4;11-BCL-2 G101V and RS4;11-BCL-2 F104L cells. Cells were plated into 96-well plates at optimized cell density (RS4;11-BCL-2 G101V: 5000 cells/well; RS4;11-BCL-2 F104L: 5000 cells/well). Plates were incubated at 37° C., with 5% CO2 for 4 h. Compounds were serially diluted to the final-concentrations of 10000, 3333.3, 1111.1, 370.4, 123.5, 41.2, 13.7, 4.6 and 1.4 nM and added to the plates. Plates were incubated at 37° C., with 5% CO2 for 168 h. 20 μl MTS was added into each well and the plates were incubated at 37° C., with 5% CO2 exactly for 2 h. The absorbance was measured by a microplate reader at 490 nm. IC50 values were calculated using GraphPad Prism 5.0 software.

RS4;11-BCL-2 F104L cells = test: Cell proliferation assay, engineered RS4;11 cells stably overexpressing BCL-2 F104L (MTS, 168 h); settings: Homo sapiens, read-out: RS4, 11 BCL2-F104L
Method: as §1, §2

Row | Structure (SMILES) | IC50 (Toledo cells) [nM] | IC50 (RS4;11-BCL-2 G101V cells) [nM] | IC50 (RS4;11-BCL-2 F104L cells) [nM]
1 | COCCOc1nc2[nH]ccc2cc1Oc1cc(N2CCC3(CC2)CN([C@H]2CCC[C@H]2c2ccccc2C(C)C)C3)ccc1C(=O)NS(=O)(=O)c1cc2c(c([N+](=O)[O-])c1)N[C@@H]([C@H]1CC[C@](C)(O)CC1)CO2 (racemic) [Example D-75a, N-(((S)-3-((1r,4S)-4-hydroxy-4-methylcyclohexyl)-5-nitro-3,4-dihydro-2H-benzo[b][1,4]oxazin-7-yl)sulfonyl)-4-(2-((1S,2S and 1R,2R)-2-(2-isopropylphenyl)cyclopentyl)-2,7-diazaspiro[3.5]nonan-7-yl)-2-((6-(2-methoxyethoxy)-1H-pyrrolo[2,3-b]pyridin-5-yl)oxy) benzamide] | 1 | 4 | 
2 | CCOc1nc2[nH]ccc2cc1Oc1cc(N2CCC3(CC2)CN([C@H]2CCC[C@H]2c2ccccc2C(C)C)C3)ccc1C(=O)NS(=O)(=O)c1cnc(NC[C@H]2CC[C@](C)(O)CC2)c([N+](=O)[O-])c1 (single isomer, unassigned) [Example A-161, 2-((6-ethoxy-1H-pyrrolo[2,3-b]pyridin-5-yl)oxy)-N-((6-(((1r,4r)-4-hydroxy-4-methylcyclohexyl)methyl)amino)-5-nitropyridin-3-yl)sulfonyl)-4-(2-((1S,2S or 1R,2R)-2-(2-isopropylphenyl)cyclo-pentyl)-2,7-diazaspiro[3.5]nonan-7-yl) benzamide] | 1 | 2 | 
3 | COc1nc2[nH]ccc2cc1Oc1cc(N2CCC3(CC2)CC(N2CCC[C@H]2c2ccccc2C(C)C)C3)ccc1C(=O)NS(=O)(=O)c1cc2c(c([N+](=O)[O-])c1)N[C@@H]([C@H]1CC[C@](C)(O)CC1)CO2 (single isomer, unassigned) [Example D-10, N-(((S)-3-((1r,4S)-4-hydroxy-4-methylcyclohexyl)-5-nitro-3,4-dihydro-2H-benzo[b][1,4]oxazin-7-yl)sulfonyl)-4-(2-((R or S)-2-(2-isopropylphenyl)pyrrolidin-1-yl)-7-azaspiro[3.5]nonan-7-yl)-2-((6-methoxy-1H-pyrrolo [2,3-b]pyridin-5-yl)oxy)benzamide] | 1 |  | 34
4 | COc1nc2[nH]cc(F)c2cc1Oc1cc(N2CCC3(CC2)CC(N2CCC[C@H]2c2ccccc2C(C)C)C3)ccc1C(=O)NS(=O)(=O)c1cc2c(c([N+](=O)[O-])c1)N[C@@H]([C@H]1CC[C@](C)(O)CC1)CO2 (single isomer, unassigned) [Example D-83, 2-((3-fluoro-6-methoxy-1H-pyrrolo [2,3-b]pyridin-5-yl)oxy)-N-(((S)-3-((1r,4S)-4-hydroxy-4-methylcyclohexyl)-5-nitro-3,4-dihydro-2H-benzo[b][1,4]oxazin-7-yl)sulfonyl)-4-(2-((R or S)-2-(2-isopropylphenyl)pyrrolidin-1-yl)-7-azaspiro[3.5]nonan-7-yl)benzamide] | 1 |  | 8
5 | COc1nc2[nH]cc(F)c2cc1Oc1cc(N2CCC3(CC2)CN([C@H]2CCC[C@H]2c2ccccc2C(C)C)C3)ccc1C(=O)NS(=O)(=O)c1ccc(NC[C@H]2CC[C@](C)(O)CC2)c([N+](=O)[O-])c1 (single isomer, unassigned) [Example D-109, 2-((3-fluoro-6-methoxy-1H-pyrrolo [2,3-b]pyridin-5-yl)oxy)-N-((4-((((1r,4r)-4-hydroxy-4-methylcyclohexyl)methyl)amino)-3-nitrophenyl)sulfonyl)-4-(2-((1S,2S or 1R,2R)-2-(2-isopropylphenyl)cyclopentyl)-2,7-diazaspiro[3.5]nonan-7-yl)benzamide] | 1 |  | 8
6 | CCOc1nc2[nH]cc(F)c2cc1Oc1cc(N2CCC3(CC2)CN([C@H]2CCC[C@H]2c2ccccc2C(C)C)C3)ccc1C(=O)NS(=O)(=O)c1ccc(NC[C@H]2CC[C@](C)(O)CC2)c([N+](=O)[O-])c1 (single isomer, unassigned) [Example D-110, 2-((6-ethoxy-3-fluoro-1H-pyrrolo [2,3-b]pyridin-5-yl)oxy)-N-((4-((((1r,4r)-4-hydroxy-4-methylcyclohexyl)methyl)amino)-3-nitrophenyl)sulfonyl)-4-(2-((1S,2S or 1R,2R)-2-(2-isopropylphenyl)cyclopentyl)-2,7-diazaspiro[3.5]nonan-7-yl)benzamide] | 1 |  | 15
7 | CC(C)c1ccccc1[C@@H]1CCC[C@@H]1N1CC2(CCN(c3ccc(C(=O)NS(=O)(=O)c4ccc(NC[C@H]5CC[C@](C)(O)CC5)c([N+](=O)[O-])c4)c(Oc4cc5cc[nH]c5nc4F)c3)CC2)C1 (single isomer, unassigned) [Example D-116, 2-((6-fluoro-1H-pyrrolo[2,3-b]pyridin-5-yl)oxy)-N-((4-((1r,4r)-4-hydroxy-4-methylcyclohexyl)methyl)amino)-3-nitrophenyl) sulfonyl)-4-(2-((1S,2S or 1R,2R)-2-(2-isopropylphenyl) cyclopentyl)-2,7-diazaspiro[3.5] nonan-7-yl)benzamide] | 1 |  | 1
8 | CC(C)c1ccccc1[C@@H]1CCC[C@@H]1N1CC2(CCN(c3ccc(C(=O)NS(=O)(=O)c4cc5c(c([N+](=O)[O-])c4)N[C@@H]([C@H]4CC[C@](C)(O)CC4)CO5)c(Oc4cc5cc[nH]c5nc4F)c3)CC2)C1 (single isomer, unassigned) [Example D-117, 2-((6-fluoro-1H-pyrrolo[2,3-b]pyridin-5-yl)oxy)-N-(((S)-3-((1r,4S)-4-hydroxy-4-methylcyclohexyl)-5-nitro-3,4-dihydro-2H-benzo[b] [1,4]oxazin-7-yl)sulfonyl)-4-(2-((1S,2S or 1R,2R)-2-(2-isopropylphenyl)cyclopentyl)-2,7-diazaspiro[3.5]nonan-7-yl)benzamide] | 1 |  | 1
9 | Cc1nc2[nH]cc(F)c2cc1Oc1cc(N2CCC3(CC2)CN([C@H]2CCC[C@H]2c2ccccc2C(C)C)C3)ccc1C(=O)NS(=O)(=O)c1ccc(NC[C@H]2CC[C@](C)(O)CC2)c([N+](=O)[O-])c1 (single isomer, unassigned) [Example D-234, 2-((3-fluoro-6-methyl-1H-pyrrolo [2,3-b]pyridin-5-yl)oxy)-N-((4-((((1r,4r)-4-hydroxy-4-methylcyclohexyl)methyl)amino)-3-nitrophenyl)sulfonyl)-4-(2-((1S,2S or 1R,2R)-2-(2-isopropylphenyl)cyclopentyl)-2,7-diazaspiro[3.5]nonan-7-yl)benzamide] | 1 |  | 8
10 | Cc1nc2[nH]cc(F)c2cc1Oc1cc(N2CCC3(CC2)CN([C@H]2CCC[C@H]2c2ccccc2C(C)C)C3)ccc1C(=O)NS(=O)(=O)c1cc2c(c([N+](=O)[O-])c1)N[C@@H]([C@H]1CC[C@](C)(O)CC1)CO2 (single isomer, unassigned) [Example D-240, 2-((3-fluoro-6-methyl-1H-pyrrolo [2,3-b]pyridin-5-yl)oxy)-N-(((S)-3-((1r,4S)-4-hydroxy-4-methylcyclohexyl)-5-nitro-3,4-dihydro-2H-benzo[b][1,4]oxazin-7-yl)sulfonyl)-4-(2-((1S,2S or 1R,2R)-2-(2-isopropylphenyl)cyclopentyl)-2,7-diazaspiro[3.5]nonan-7-yl)benzamide] | 1 |  | 10
11 | Cc1nc2[nH]cc(F)c2cc1Oc1cc(N2CCC3(CC2)CC(N2CCC[C@H]2c2ccccc2C(C)C)C3)ccc1C(=O)NS(=O)(=O)c1cc2c(c([N+](=O)[O-])c1)N[C@@H]([C@H]1CC[C@](C)(O)CC1)CO2 (single isomer, unassigned) [Example D-244, 2-((3-fluoro-6-methyl-1H-pyrrolo [2,3-b]pyridin-5-yl)oxy)-N-(((S)-3-((1r,4S)-4-hydroxy-4-methylcyclohexyl)-5-nitro-3,4-dihydro-2H-benzo[b][1,4]oxazin-7-yl)sulfonyl)-4-(2-((R or S)-2-(2-isopropylphenyl)pyrrolidin-1-yl)-7-azaspiro[3.5]nonan-7-yl)benzamide] | 1 |  | 1
12 | CC(C)c1ccccc1[C@@H]1CCCN1C1CC2(CCN(c3ccc(C(=O)NS(=O)(=O)c4cc5c(c([N+](=O)[O-])c4)N[C@@H]([C@H]4CC[C@](C)(O)CC4)CO5)c(Oc4cc5cc[nH]c5nc4OC[C@H]4COCCO4)c3)CC2)C1 (single isomer, unassigned) [Example D-252, 2-((6-(((R)-1,4-dioxan-2-yl)methoxy)-1H-pyrrolo[2,3-b]pyridin-5-yl)oxy)-N-(((S)-3-((1r,4S)-4-hydroxy-4-methylcyclohexyl)-5-nitro-3,4-dihydro-2H-benzo[b][1,4]oxazin-7-yl)sulfonyl)-4-(2-((R or S)-2-(2-isopropylphenyl)pyrrolidin-1-yl)-7-azaspiro[3.5]nonan-7-yl)benzamide] | 1 |  | 1
